# What was measured:
# Rattus norvegicus [1] = assay: Sub-acute toxicity in Wistar rat assessed as blood urea level at 100 mg/kg, po administered daily for 14 days (reference value: 40.7 +/- 3.3 mg/dl); type: organism-based; settings: in vivo, 336 h
# Rattus norvegicus [2] = assay: Sub-acute toxicity in Wistar rat assessed as calcium level at 100 mg/kg, po administered daily for 14 days (reference value: 10.5 +/- 1.5 mg/dl); type: organism-based; settings: in vivo, 336 h
# Rattus norvegicus [3] = assay: Sub-acute toxicity in Wistar rat assessed as creatinine level at 100 mg/kg, po administered daily for 14 days (reference value: 0.62 +/- 0.3 mg/dl); type: organism-based; settings: in vivo, 336 h
# Rattus norvegicus [4] = assay: Sub-acute toxicity in Wistar rat assessed as total protein level at 100 mg/kg, po administered daily for 14 days (reference value: […]); type: organism-based; settings: in vivo, 336 h
# Mus musculus [5] = assay: Anticonvulsant activity in Swiss albino mouse assessed as protection against maximal electroshock-induced seizures at 30 mg/kg, ip administered 4 hrs prior to 50 mA current induction relative to control; type: functional
# Rattus norvegicus [6] = assay: Sub-acute toxicity in Wistar rat assessed as uric acid level at 100 mg/kg, po administered daily for 14 days (reference value: 3.9 +/- 2.8 mg/dl); type: organism-based; settings: in vivo, 336 h
# Homo sapiens [7] = species on record: Homo sapiens; assay: Selectivity ratio of Ki for human recombinant carbonic anhydrase 1 to Ki for human recombinant carbonic anhydrase 7
# Mus musculus [8] = assay: Anticonvulsant activity in Swiss albino mouse assessed as protection against subcutaneous PTZ-induced seizures at 100 mg/kg, ip administered 3 hrs prior to PTZ-induction relative to control; type: functional
# Rattus norvegicus [9] = assay: Anticonvulsant activity in Wistar rat assessed as protection against maximal electroshock-induced seizures at 30 mg/kg, po administered 1 hr prior to 150 mA current induction relative to control; type: functional
# Carbonic anhydrase 2 = Carbonic anhydrase 2 (Homo sapiens, UniProt P00918); assay: Inhibition of human recombinant carbonic anhydrase 2 assessed as CO2 hydration preincubated for 15 mins prior to testing measured for 10 to 100 secs by phenol red dye-based stopped-flow assay
# Rattus norvegicus [10] = assay: Sub-acute toxicity in Wistar rat assessed as Na+ level at 100 mg/kg, po administered daily for 14 days (reference value: 143.8 +/- 2.3 mEq/L); type: organism-based; settings: in vivo, 336 h
# Mus musculus [11] = assay: Neurotoxicity in Swiss albino mouse at 30 mg/kg, ip after 30 to 120 mins by rotarod test; type: toxicity, organism-based; settings: in vivo
# Carbonic anhydrase 1 = Carbonic anhydrase 1 (Homo sapiens, UniProt P00915); assay: Inhibition of human recombinant carbonic anhydrase 1 assessed as CO2 hydration preincubated for 15 mins prior to testing measured for 10 to 100 secs by phenol red dye-based stopped-flow assay
# Carbonic anhydrase 1, sequence (P00915 whole entry): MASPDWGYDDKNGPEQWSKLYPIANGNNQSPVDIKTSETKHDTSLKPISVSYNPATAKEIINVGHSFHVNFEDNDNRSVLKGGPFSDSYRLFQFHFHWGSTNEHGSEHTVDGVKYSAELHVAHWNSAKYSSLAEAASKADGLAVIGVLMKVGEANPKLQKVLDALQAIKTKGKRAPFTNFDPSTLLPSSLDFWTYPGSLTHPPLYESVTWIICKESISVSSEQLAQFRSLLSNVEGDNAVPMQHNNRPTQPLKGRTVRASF
# Rattus norvegicus [12] = assay: Sub-acute toxicity in Wistar rat assessed as effect on food intake at 100 mg/kg, po administered daily for 14 days; type: organism-based; settings: in vivo, 336 h
# Homo sapiens [13] = species on record: Homo sapiens; assay: Selectivity ratio of Ki for human recombinant carbonic anhydrase 2 to Ki for human recombinant carbonic anhydrase 7
# Rattus norvegicus [14] = assay: Sub-acute toxicity in Wistar rat assessed as Cl- level at 100 mg/kg, po administered daily for 14 days (reference value: 104.1 +/- 6.2 mEq/L); type: organism-based; settings: in vivo, 336 h
# Rattus norvegicus [15] = assay: Sub-acute toxicity in Wistar rat assessed as monocytes level at 100 mg/kg, po administered daily for 14 days (reference value: 2.6 +/- 1.5%); type: organism-based; settings: in vivo, 336 h
smiles,measurement,setting,value
Cc1ccc(N2CCN(c3ccc(/C=N/NC(=O)c4ccc(S(N)(=O)=O)cc4)cc3)CC2)c(C)c1,Activity,Rattus norvegicus [1],39.6 mg/dL
same,Activity,Rattus norvegicus [2],10 mg/dL
same,Activity,Rattus norvegicus [3],0.75 mg/dL
same,Activity,Rattus norvegicus [4],6.62 g/dL
same,Activity,Mus musculus [5],50%
same,Activity,Rattus norvegicus [6],4.33 mg/dL
same,Ratio Ki,Homo sapiens [7],561
same,Activity,Mus musculus [8],83%
same,Activity,Rattus norvegicus [9],84%
same,Ki,Carbonic anhydrase 2,9.39 µM
same,Activity,Rattus norvegicus [10],142.5 mEq/L
same,Activity,Mus musculus [11],Non-Toxic
same,Ki,Carbonic anhydrase 1,> 10 µM
same,Activity,Rattus norvegicus [12],Non-Toxic
same,Ratio Ki,Homo sapiens [13],527
same,Activity,Rattus norvegicus [14],105.6 mEq/L
same,Activity,Rattus norvegicus [15],2%

# Source: ChEMBL document CHEMBL4270557, “Discovery of potent anti-convulsant carbonic anhydrase inhibitors: Design, synthesis, in vitro and in vivo appraisal” (Eur J Med Chem, 2018)
